Converted amounts (≈) assume the structure as drawn.

What all share (assay type): cell-based
In one experiment the test system is MRSA (ATCC 33591). The experiment in a line: Broth microdilution MIC, MRSA ATCC 33591. The following applies: Staphylococcus aureus; Tables 2-4; standardized conditions. As to the method: General information—Biological Assays. Methicillin-resistant and methicillin sensitive Staphylococcus aureus (MRSA and MSSA respectively) strains were obtained from the Laboratory of Professor Christian Melander (NCSU) (ATCC BAA 44 and 33591) and Dr. Jessica Gilbertie (ATCC 25923). Bacteria were kept in frozen stocks on glycerol at −80° C. until use. Bacteria was streaked onto tryptic-soy agar for colony isolation. Mueller-Hinton broth (MHB, 211443-BD), tryptic soy broth (TSB, Remel: R455052) and D-glucose (CAS: 492-62-6) were purchased from Fisher Scientific. Tryptic soy agar (TSA, cat. #22091) and Linezolid (cat. #P70014) were purchased from Sigma-Aldrich. Bacteria for biofilm inhibition were cultured overnight in TSB-G (tryptic soy broth with 0.5% glucose supplement) in 96 well plates. All assays were run in duplicate and repeated at least two separate times for MIC assays and at least three separate times for biofilm inhibition. All compounds were dissolved in molecular biology grade DMSO as 10 mM stock solutions. Optical densities were measured using a Thermo Scientific Genesys 20 spectrophotometer. Data for biofilm inhibition were collected using a BioTek ELx808 Microplate Reader. All graphs were generated and analyzed using GraphPad Prism 7.
Broth microdilution method for determination of minimum inhibitory concentrations. As prescribed by the Clinical and Laboratory Standards Institute (CLSI) M07-A8, Vol. 29 (2) MSSA (ATCC 25923) and MRSA (ATCC BAA 44 and 33591) was grown in MHB for 6-8 h; this culture was used to inoculate fresh MHB (5×10^5 CFU/mL). The resulting bacterial suspension was aliquoted (1 mL) into 1.5 mL Eppendorf tubes and compound was added from a 10 mM DMSO stock to achieve the desired initial starting concentration (typically 128 μg/mL). Linezolid (from a 10 mM DMSO stock) was used as a positive control. Inoculated media not treated with compound served as the negative control. The MIC was determined by microbroth dilution following the CLSI guidelines. The MIC was defined as the lowest concentration of antibiotic with no visible growth. The plate was sealed and incubated under stationary conditions at 37° C.
The antimicrobial activity of Compounds 1-15 was assessed initially against MSSA (ATCC 25923) and MRSA (ATCC 33591) strains. It was observed that almost all these compounds precipitated in aqueous solution at concentrations equal or higher than 8-16 μg/mL. In order to obtain preliminary results on the antimicrobial activity for these compounds, the standard conditions of the antimicrobial assays used where modified to favor the water solubility of these compounds.
(In broth dilution the organism is exposed to a series of concentrations in liquid medium.)

In another experiment the test system is S. aureus 29213. Nature of the experiment: Broth microdilution MIC, S. aureus 29213. Conditions: Staphylococcus aureus, Tables 3-4, standardized conditions, read-out: MIC (S. aureus 29213).
The next experiment concerns MSSA (ATCC 25923). The experiment in a line: Broth microdilution MIC, MSSA ATCC 25923. The following applies: Staphylococcus aureus; Tables 2-4; standardized conditions; read-out: MIC (S. aureus 25923).

On to `CCC1C(c2ccc(C(F)(F)F)cc2)=C(O)C(=O)N1CCN(CCN)CCN` (stereo not drawn) [Compound 38, 1-(2-(bis(2-aminoethyl)amino)ethyl)-5-ethyl-3-hydroxy-4-(4-(trifluoromethyl)phenyl)-1,5-dihydro-2H-pyrrol-2-one], for which the minimum inhibitory concentration (MIC) in the experiment on MRSA (ATCC 33591), with S. aureus 29213 and with MSSA (ATCC 25923) was 64 µg/mL (≈ 160 µM) in each case.
For the compound `CCC1C(c2ccc(C(F)(F)F)cc2)=C(O)C(=O)N1CCN(CCN)CCN1C(=O)C(O)=C(c2ccc(C(F)(F)F)cc2)C1CC` (stereo not drawn) [Compound 39, 1,1′-(((2-aminoethyl)azanediyl)bis(ethane-2,1-diyl))bis(5-ethyl-3-hydroxy-4-(4-(trifluoromethyl)phenyl)-1,5-dihydro-2H-pyrrol-2-one)], the MIC in the experiment on MRSA (ATCC 33591), with S. aureus 29213 and in the experiment with MSSA (ATCC 25923) was 64 µg/mL (≈ 97.8 µM) each time.
Regarding `CCC1C(c2ccc(C(F)(F)F)cc2)=C(O)C(=O)N1CCN(CCN1C(=O)C(O)=C(c2ccc(C(F)(F)F)cc2)C1CC)CCN1C(=O)C(O)=C(c2ccc(C(F)(F)F)cc2)C1CC` (stereo not drawn) [Compound 40, 1,1′,1″-(nitrilotris(ethane-2,1-diyl))tris(5-ethyl-3-hydroxy-4-(4-(trifluoromethyl)phenyl)-1,5-dihydro-2H-pyrrol-2-one)], the minimal inhibitory concentration (MIC) against MRSA (ATCC 33591), in the experiment on S. aureus 29213 and with MSSA (ATCC 25923) was more than 128 µg/mL each time.
As to `CC1C(c2ccc(C(F)(F)F)cc2)=C(O)C(=O)N1c1ccc(Br)cc1` (stereo not drawn) [Compound 41, 1-(4-Bromophenyl)-3-hydroxy-5-methyl-4-(4-(trifluoromethyl)phenyl)-1,5-dihydro-2H-pyrrol-2-one], the MIC against MRSA (ATCC 33591) is 32 µg/mL (≈ 77.6 µM); in the experiment on S. aureus 29213 it was more than 128 µg/mL; in the experiment on MSSA (ATCC 25923), more than 128 µg/mL.
Take `CCC1C(c2ccc(C(F)(F)F)cc2)=C(O)C(=O)N1c1ccc(Br)cc1` (stereo not drawn) [Compound 42, 1-(4-Bromophenyl)-5-ethyl-3-hydroxy-4-(4-(trifluoromethyl)phenyl)-1,5-dihydro-2H-pyrrol-2-one]: the MIC in the experiment with MRSA (ATCC 33591), in the experiment on S. aureus 29213 and in the experiment with MSSA (ATCC 25923) was more than 128 µg/mL in each case.
For `O=C1C(O)=C(c2ccc(C(F)(F)F)cc2)C(C2CC2)N1c1ccc(Br)cc1` (stereo not drawn) [Compound 43, 1-(4-Bromophenyl)-5-cyclopropyl-3-hydroxy-4-(4-(trifluoromethyl)phenyl)-1,5-dihydro-2H-pyrrol-2-one], the MIC with MRSA (ATCC 33591) was 64 µg/mL (≈ 146 µM); in the experiment with S. aureus 29213, more than 128 µg/mL; in the experiment with MSSA (ATCC 25923), more than 128 µg/mL.
With `O=C1C(O)=C(c2ccc(C(F)(F)F)cc2)C(CCl)N1c1ccc(Br)cc1` (stereo not drawn) [Compound 44, 1-(4-Bromophenyl)-5-(chloromethyl)-3-hydroxy-4-(4-(trifluoromethyl)phenyl)-1,5-dihydro-2H-pyrrol-2-one], the MIC was determined as 64 µg/mL (≈ 143 µM) in the experiment with MRSA (ATCC 33591), 128 µg/mL (≈ 287 µM) in the experiment on S. aureus 29213 and 64 µg/mL (≈ 143 µM) in the experiment with MSSA (ATCC 25923).
Regarding `O=C1C(O)=C(c2ccc(C(F)(F)F)cc2)C(c2cccs2)N1c1ccc(Br)cc1` (stereo not drawn) [Compound 45, 1-(4-Bromophenyl)-3-hydroxy-5-(thiophen-2-yl)-4-(4-(trifluoromethyl)phenyl)-1,5-dihydro-2H-pyrrol-2-one], the MIC in the experiment with MRSA (ATCC 33591) was more than 128 µg/mL; with S. aureus 29213 it was 128 µg/mL (≈ 266 µM); in the experiment on MSSA (ATCC 25923), more than 128 µg/mL.
For the compound `O=C1C(O)=C(c2ccc(C(F)(F)F)cc2)C(Cc2ccccc2)N1c1ccc(Br)cc1` (stereo not drawn) [Compound 46, 5-Benzyl-1-(4-bromophenyl)-3-hydroxy-4-(4-(trifluoromethyl)phenyl)-1,5-dihydro-2H-pyrrol-2-one], the MIC against MRSA (ATCC 33591), with S. aureus 29213 and in the experiment on MSSA (ATCC 25923) was more than 128 µg/mL throughout.
Consider `O=C1C(O)=C(c2ccc(C(F)(F)F)cc2)C([C@@H](O)c2ccccc2)N1c1ccc(Br)cc1` (stereo partly drawn) [Compound 48, 1-(4-Bromophenyl)-3-hydroxy-5-((S)-hydroxy(phenyl)methyl)-4-(4-(trifluoromethyl)phenyl)-1,5-dihydro-2H-pyrrol-2-one], for which the MIC in the experiment on MRSA (ATCC 33591) was 32 µg/mL (≈ 63.5 µM); with S. aureus 29213, 16 µg/mL (≈ 31.7 µM); in the experiment with MSSA (ATCC 25923), 32 to 64 µg/mL (≈ 63.5 to 127 µM).
With `O=C1C(O)=C(c2ccc(C(F)(F)F)cc2)C(C(O)CO)N1c1ccc(Br)cc1` (stereo not drawn) [Compound 49, 1-(4-Bromophenyl)-5-(1,2-dihydroxyethyl)-3-hydroxy-4-(4-(trifluoromethyl)phenyl)-1,5-dihydro-2H-pyrrol-2-one], the MIC with MRSA (ATCC 33591), with S. aureus 29213 and with MSSA (ATCC 25923) was more than 128 µg/mL each time.
On to `CCCCCCN1C(=O)C(O)=C(c2ccc(C(F)(F)F)cc2)C1[C@H](O)c1ccccc1` (stereo partly drawn) [Compound 50, 1-Hexyl-3-hydroxy-5-((R)-hydroxy(phenyl)methyl)-4-(4-(trifluoromethyl)phenyl)-1,5-dihydro-2H-pyrrol-2-one], for which the MIC against MRSA (ATCC 33591), in the experiment on S. aureus 29213 and in the experiment with MSSA (ATCC 25923) was more than 128 µg/mL in each case.
As to `O=C1C(O)=C(c2ccc(C(F)(F)F)cc2)C([C@H](O)c2ccccc2)N1c1ccccc1` (stereo partly drawn) [Compound 51, 3-Hydroxy-5-((R)-hydroxy(phenyl)methyl)-1-phenyl-4-(4-(trifluoromethyl)phenyl)-1,5-dihydro-2H-pyrrol-2-one], the figures for the minimal inhibitory concentration (MIC) in the experiment on MRSA (ATCC 33591), in the experiment with S. aureus 29213 and with MSSA (ATCC 25923) were 32 µg/mL (≈ 75.2 µM), 32 µg/mL (≈ 75.2 µM) and 64 µg/mL (≈ 150 µM), respectively.
Regarding `COc1ccc(N2C(=O)C(O)=C(c3ccc(C(F)(F)F)cc3)C2[C@H](O)c2ccccc2)cc1` (stereo partly drawn) [Compound 52, 3-Hydroxy-5-((R)-hydroxy(phenyl)methyl)-1-(4-methoxyphenyl)-4-(4-(trifluoromethyl)phenyl)-1,5-dihydro-2H-pyrrol-2-one], the MIC against MRSA (ATCC 33591), in the experiment on S. aureus 29213 and with MSSA (ATCC 25923) was more than 128 µg/mL in each case.
For `O=C1C(O)=C(c2ccc(C(F)(F)F)cc2)C([C@H](O)c2ccccc2)N1c1ccc(F)cc1` (stereo partly drawn) [Compound 53, 1-(4-Fluorophenyl)-3-hydroxy-5-((R)-hydroxy(phenyl)methyl)-4-(4-(trifluoromethyl)phenyl)-1,5-dihydro-2H-pyrrol-2-one], the minimal inhibitory concentration (MIC) was found to be 128 µg/mL (≈ 289 µM) against MRSA (ATCC 33591), 128 µg/mL (≈ 289 µM) with S. aureus 29213 and 16 µg/mL (≈ 36.1 µM) with MSSA (ATCC 25923).
As to `O=C1C(O)=C(c2ccc(C(F)(F)F)cc2)C([C@H](O)c2ccccc2)N1c1ccc(Cl)cc1` (stereo partly drawn) [Compound 54, 1-(4-Chlorophenyl)-3-hydroxy-5-((R)-hydroxy(phenyl)methyl)-4-(4-(trifluoromethyl)phenyl)-1,5-dihydro-2H-pyrrol-2-one], the MIC in the experiment on MRSA (ATCC 33591) is 4 to 8 µg/mL (≈ 8.7 to 17.4 µM); in the experiment with S. aureus 29213 it was 4 µg/mL (≈ 8.7 µM); in the experiment with MSSA (ATCC 25923), 4 µg/mL (≈ 8.7 µM).
With `O=C1C(O)=C(c2ccc(C(F)(F)F)cc2)C([C@H](O)c2ccccc2)N1c1ccc(I)cc1` (stereo partly drawn) [Compound 55, 3-Hydroxy-5-((R)-hydroxy(phenyl)methyl)-1-(4-iodophenyl)-4-(4-(trifluoromethyl)phenyl)-1,5-dihydro-2H-pyrrol-2-one], the MIC against MRSA (ATCC 33591) is 4 µg/mL (≈ 7.26 µM); in the experiment with S. aureus 29213, 2 µg/mL (≈ 3.63 µM); with MSSA (ATCC 25923), 2 to 4 µg/mL (≈ 3.63 to 7.26 µM).
The corresponding values for `O=C1C(O)=C(c2ccc(C(F)(F)F)cc2)C([C@H](O)c2ccccc2)N1c1ccc(C(F)(F)F)cc1` (stereo partly drawn) [Compound 56, 3-Hydroxy-5-((R)-hydroxy(phenyl)methyl)-1,4-bis(4-(trifluoromethyl)phenyl)-1,5-dihydro-2H-pyrrol-2-one] are 2 µg/mL (≈ 4.05 µM), 2 µg/mL (≈ 4.05 µM) and 2 µg/mL (≈ 4.05 µM).

What is called MIC is the smallest concentration in the dilution series that meets the test's criterion for growth inhibition.
